Here are results for 35 compounds from patent US6476034B2, “Antiviral azaindole derivatives” (priority 2000, dated 2002).

The EC50 is the midpoint of the concentration-response curve. A low value points to higher potency in that assay. Broadly, the inhibition is the drop in the measured response relative to a control, in per cent.

This experiment deals with single-round infectious HIV-1 reporter virus. The experiment in a line: microbe, parasite or virus in culture. It counts as cell-based. Particulars: for Average % inhibition at or <10 μM: HeLa CD4 CCR5 cells, luciferase expression 3 days (72 hours) after infection, compounds tested below 10 μM: % inhibition at 10 μM extrapolated with XLfit, mean of at least two experiments; for EC50: Human immunodeficiency virus 1, HeLa-CD4/CCR5; for inhibition at 10 µM: Human immunodeficiency virus 1, HeLa-CD4/CCR5, 72 h, read-out: Average % inhibition at or <10 μM.

As for `CCCSc1ccc2c(C(=O)C(=O)N3CCN(C(=O)c4ccccc4)C[C@H]3C)c[nH]c2n1` [Compound 17f, (R)-N-(benzoyl)-3-methyl-N′-[(6-propylthiol-7-azaindol-3-yl)-oxoacetyl]-piperazine], the “Average % inhibition at or <10 μM” value is over 99%. Regarding `O=C(C(=O)N1CCN(C(=O)c2ccccc2)CC1)c1c[nH]c2c(Cl)nccc12` [Compound 5t, N-(benzoyl)-N′-[(7-Chloro-6-azaindol-3-yl)-oxoacetyl]-piperazine], the EC50 is under 1000 nM and the inhibition at 10 µM is over 99%. For `COc1ccnc2[nH]cc(C(=O)C(=O)N3CCN(C(=O)c4ccccc4)C[C@@H]3C)c12` [Compound 17d, (S)-N-(benzoyl)-3-methyl-N′-[(4-methoxy-7-azaindol-3-yl)-oxoacetyl]-piperazine], in that order: under 1000 nM and 98%.

With `C[C@@H]1CN(C(=O)c2ccccc2)CCN1C(=O)C(=O)c1c[nH]c2ncccc12` [Compound 5a, (R)-N-(benzoyl)-3-methyl-N′-[(7-azaindol-3-yl)-oxoacetyl]-piperazine], the concentration for a half-maximal effect (EC50) was under 1000 nM and the inhibition at 10 µM was over 99%.

As for `CC(=O)Oc1ccc2c(C(=O)C(=O)N3CCN(C(=O)c4ccccc4)C[C@H]3C)cn(C(C)=O)c2n1` [Compound 13a, (R)-N-(benzoyl)-3-methyl-N′-[(1-acetyl-6-acetoxy-7-azaindol-3-yl)-oxoacetyl]-piperazine], the concentration for a half-maximal effect (EC50) was under 1000 nM and the inhibition at 10 µM was over 99%. Compound `CC1CN(C(=O)c2ccccc2)CCN1C(=O)C(=O)c1c[nH]c2ncccc12` (stereo not shown) [Compound 5ai, N-(benzoyl)-3-methyl-N′-[(7-azaindol-3-yl)-oxoacetyl]-piperazine] came in with an EC50 of under 1000 nM.

Take “N-(pyridin-2-yl)-N′-[(7-azaindol-3-yl)-oxoacetyl]-piperazine [Compound 5j]”: the “Average % inhibition at or <10 μM” value is listed as 90%. In the case of `COc1cc[n+]([O-])c2[nH]cc(C(=O)C(=O)N3CCN(C(=O)c4ccccc4)C[C@H]3C)c12` [Compound 16a, (R)-N-(benzoyl)-3-methyl-N′-[(4-methoxy-7-oxide-7-azaindol-3-yl)-oxoacetyl]-piperazine], the “Average % inhibition at or <10 μM” value is listed as over 99%. As for `CCC1CN(C(=O)c2c[nH]c3ncccc23)CCN1C(=O)c1ccccc1` (stereo not shown) [Compound 5c, N-(benzoyl)-2-ethyl-N′-[(7-azaindol-3-yl)-carbonyl]-piperazine], the EC50 is under 1000 nM and the inhibition at 10 µM was found to be 80%. As to `COc1nccc2c(C(=O)C(=O)N3CCN(C(=O)c4ccccc4)C[C@H]3C)c[nH]c12` [Compound 5v, (R)-N-(benzoyl)-3-Methyl-N′-[(7-Methoxy-6-azaindol-3-yl)-oxoacetyl]-piperazine], the concentration giving a half-maximal response (EC50) was under 1000 nM and the inhibition at 10 µM is over 99%. In the same order, the values of `CCC1CN(C(=O)C(=O)c2c[nH]c3ncccc23)CCN1C(=O)c1ccccc1` (stereo not shown) [Compound 5b, N-(benzoyl)-2-ethyl-N′-[(7-azaindol-3-yl)-oxoacetyl]-piperazine] are under 1000 nM and 90%. For `C[C@@H]1CN(C(=O)c2ccccc2)CCN1C(=O)C(=O)c1c[nH]c2nccc(NO)c12` [Compound 19a, (R)-N-(benzoyl)-3-methyl-N′-[(4-hydroxylamino-7-azaindol-3-yl)-oxoacetyl]-piperazine], the EC50 was under 1000 nM and the inhibition at 10 µM was 98%. In the same order, the values of `COc1ccnc2c(C(=O)C(=O)N3CCN(C(=O)c4ccccc4)C[C@H]3C)cn(C)c12` [Compound 5z, (R)-N-(benzoyl)-3-Methyl-N′-[(7-Methoxy-1-methyl-4-azaindol-3-yl)-oxoacetyl]-piperazine] are under 1000 nM and 97%.

Regarding `O=C(C(=O)N1CCN(C(=O)c2ccccc2)CC1)c1c[nH]c2ncccc12` [Compound 5d, N-(benzoyl)-N′-[(7-azaindol-3-yl)-oxoacetyl]-piperazine], the EC50 was under 1000 nM and the inhibition at 10 µM is 98%. For `C[C@@H]1CN(C(=O)c2ccccc2)CCN1C(=O)C(=O)c1c[nH]c2nccc(N)c12` [Compound 20a, (R)-N-(benzoyl)-3-methyl-N′-[(4-amino-7-azaindol-3-yl)-oxoacetyl]-piperazine], in that order: under 1000 nM and 95%.

For the compound `COc1ccnc2[nH]cc(C(=O)C(=O)N3CCN(C(=O)c4ccccc4)C[C@H]3C)c12` [Compound 17a, (R)-N-(benzoyl)-3-methyl-N′-[(4-methoxy-7-azaindol-3-yl)-oxoacetyl]-piperazine], the half-maximal effective concentration (EC50) is under 1000 nM and the inhibition at 10 µM was over 99%. On to `C[C@@H]1CN(C(=O)c2ccccc2)CCN1C(=O)C(=O)c1c[nH]c2nccc([N+](=O)[O-])c12` [Compound 18a, (R)-N-(benzoyl)-3-methyl-N′-[(4-nitro-7-azaindol-3-yl)-oxoacetyl]-piperazine], for which the EC50 lay in the range of 1000 to 5000 nM and the inhibition at 10 µM came to 80%. On to `C[C@@H]1CN(C(=O)c2ccccc2)CCN1C(=O)C(=O)c1c[nH]c2cccnc12` [Compound 5w, (R)-N-(benzoyl)-3-Methyl-N′-[(4-azaindol-3-yl)-oxoacetyl]-piperazine], for which the EC50 is under 1000 nM and the inhibition at 10 µM came to 98%. In turn, `COc1ncc(OC)c2c(C(=O)C(=O)N3CCN(C(=O)c4ccccc4)CC3)c[nH]c12` [Compound 5ao, N-(benzoyl)-N′-[(4,7-dimethoxy-6-azaindol-3-yl)-oxoacetyl]piperazine] had an EC50 of under 1000 nM. Take `C[C@@H]1CN(C(=O)c2ccccc2)CCN1C(=O)C(=O)c1c[nH]c2cnccc12` [Compound 5r, (R)-N-(benzoyl)-3-Methyl-N′-[(6-azaindol-3-yl)-oxoacetyl]-piperazine]: the concentration giving a half-maximal response (EC50) was under 1000 nM and the inhibition at 10 µM was over 99%. For `CNc1ccnc2[nH]cc(C(=O)C(=O)N3CCN(C(=O)c4ccccc4)C[C@H]3C)c12` [Compound 17h, (R)-N-(benzoyl)-3-methyl-N′-[(4-methylamino-7-azaindol-3-yl)-oxoacetyl]-piperazine], the EC50 is over 500 nM. As for `C[C@@H]1CN(C(=O)c2ccccc2)CCN1C(=O)C(=O)c1c[nH]c2c[n+]([O-])ccc12` [Compound 8b, (R)-N-(benzoyl)-3-methyl-N′-[(6-oxide-6-azaindol-3-yl)-oxoacetyl]-piperazine], the “Average % inhibition at or <10 μM” value is reported as 91%. As for `COc1cncc2[nH]cc(C(=O)C(=O)N3CCN(C(=O)c4ccccc4)CC3)c12` [Compound 39, N-(benzoyl)-N′-[(4-methoxy-6-azaindol-3-yl)-oxoacetyl]-piperazine], the EC50 is under 1000 nM.

Take `CC(C)C1CN(C(=O)C(=O)c2c[nH]c3ncccc23)CCN1C(=O)c1ccccc1` (stereo not shown) [Compound 5ac, N-(benzoyl)-2-iso-Propyl-N′-[(7-azaindol-3-yl)-oxoacetyl]-piperazine]: the EC50 was over 400 nM. Regarding `Cc1ccnc2c(C(=O)C(=O)N3CCN(C(=O)c4ccccc4)C[C@H]3C)c[nH]c12` [Compound 5x, (R)-N-(benzoyl)-3-Methyl-N′-[(7-Methyl-4-azaindol-3-yl)-oxoacetyl]-piperazine], the 50% effective concentration (EC50) was under 1000 nM and the inhibition at 10 µM came to 99%.

For the compound `CC(C)Oc1ccnc2[nH]cc(C(=O)C(=O)N3CCN(C(=O)c4ccccc4)C[C@H]3C)c12` [Compound 17c, (R)-N-(benzoyl)-3-methyl-N′-[(4-(1-methylethoxy)-7-azaindol-3-yl)-oxoacetyl]-piperazine], the concentration giving a half-maximal response (EC50) is under 1000 nM and the inhibition at 10 µM was over 99%. As for `CC(C)C1CN(C(=O)c2ccccc2)CCN1C(=O)C(=O)c1c[nH]c2ncccc12` (stereo not shown) [Compound 5ab, N-(benzoyl)-3-iso-Propyl-N′-[(7-azaindol-3-yl)-oxoacetyl]-piperazine], the half-maximal effective concentration (EC50) was over 500 nM. For `O=C(C(=O)N1CCN(C(=O)c2ccccc2)CC1)c1c[nH]c2cnccc12` [Compound 5p, N-(benzoyl)-N′-[(6-azaindol-3-yl)-oxoacetyl]-piperazine], the concentration for a half-maximal effect (EC50) was over 500 nM and the inhibition at 10 µM was 40%.

In the case of `C[C@@H]1CN(C(=O)c2ccccc2)CCN1C(=O)C(=O)c1c[nH]c2ccncc12` [Compound 5m, (R)-N-(benzoyl)-3-methyl-N′-[(5-azaindol-3-yl)-oxoacetyl]-piperazine], the EC50 is over 500 nM and the inhibition at 10 µM came to 60%. With `C[C@@H]1CN(C(=O)c2ccccc2)CCN1C(=O)C(=O)c1c[nH]c2c1ccc[n+]2[O-]` [Compound 8a, (R)-N-(benzoyl)-3-methyl-N′-[(7-oxide-7-azaindol-3-yl)-oxoacetyl]-piperazine], the “Average % inhibition at or <10 μM” value is recorded as 90%. For `C[C@@H]1CN(C(=O)c2ccccc2)CCN1C(=O)C(=O)c1c[nH]c2nc(F)cc([N+](=O)[O-])c12` [Compound 10a, (R)-N-(benzoyl)-3-methyl-N′-[(4-nitro-6-fluoro-7-azaindol-3-yl)-oxoacetyl]-piperazine], the 50% effective concentration (EC50) was under 1000 nM and the inhibition at 10 µM was over 99%. As for `CC1CN(C(=O)C(=O)c2c[nH]c3ncccc23)CCN1C(=O)c1ccccc1` (stereo not shown) [Compound 5e, N-(benzoyl)-2-methyl-N′-[(7-azaindol-3-yl)-oxoacetyl]-piperazine], the concentration giving a half-maximal response (EC50) was under 1000 nM and the inhibition at 10 µM was found to be 80%. Compound `COc1ncc(OC)c2c(C(=O)C(=O)N3CCN(C(=O)c4ccccc4)C[C@H]3C)c[nH]c12` [Compound 5ap, ®-N-(benzoyl)-3-methyl-N′-[(4,7-dimethoxy-6-azaindol-3-yl)-oxoacetyl]piperazine] gave an EC50 of under 1000 nM. As to `C[C@H]1CN(C(=O)c2ccccc2)CCN1C(=O)C(=O)c1c[nH]c2ncccc12` [Compound 5f, (S)-N-(benzoyl)-3-methyl-N′-[(7-azaindol-3-yl)-oxoacetyl]-piperazine], the concentration giving a half-maximal response (EC50) was under 1000 nM and the inhibition at 10 µM is 80%. As to `C[C@@H]1CN(c2ccc(Br)o2)CCN1C(=O)C(=O)c1c[nH]c2ncccc12` [Compound 5l, (R)-N-(5-bromo-furan-2-yl)-3-methyl-N′-[(7-azaindol-3-yl)-oxoacetyl]-piperazine], the EC50 was under 1000 nM and the inhibition at 10 µM is over 99%.
